In patent publication US8354402B2, “Polyarylcarboxamides useful as lipid lowering agents” (Janssen Pharmaceutica N.V., priority 2000, dated 2013):
Counter-ions that a name gives are not always drawn.

Tested on: ApoB secretion, HepG2 cells
Experiment: Quantification of the secretion of ApoB (HepG2 cells, immunoprecipitation, scintillation counting)
Assay type: cell-based
Conditions: Homo sapiens, 24 hours of incubation
Protocol: C.1. Quantification of the Secretion of ApoB
HepG2 cells were cultured in 24-well plates in Minimal Essential Medium Rega 3 containing 10% fetal calf serum. Rega 3 has the following composition: CaCl2 (264 μg/ml), KCl (400 μg/ml), MgSO4.7H2O (200 μg/ml), NaCl (6800 μg/ml), NaHCO3 (850 μg/ml), NaH2PO4.H2O (158 μg/ml), D-glucose (1000 μg/ml), phenol red (10 μg/ml), L-alanine (8.9 μg/ml), L-arginine HCl (12 μg/ml), L-asparagine.H2O (15 μg/ml), L-aspartic acid (13.3 μg/ml), L-cystine (24 μg/ml), L-glutamic acid (14.7 μg/ml), glycine (7.5 μg/ml), L-histidine.HCl .H2O (42 μg/ml), L-isoleucine (52 μg/ml), L-leucine (52 μg/ml), L-lysine.HCl (72.5 μg/ml), L-methionine (15 μg/ml), L-phenylalanine (32 μg/ml), L-proline (11.5 μg/ml), L-serine (10.5 μg/ml), L-threonine (48 μg/ml), L-tryptophan (10 μg/ml), L-tyrosine (36 μg/ml), L-valine (46 μg/ml), D-Ca pantothenate (1 μg/ml), choline chloride (1 μg/ml), folic acid (1 μg/ml), 1-enositol (2 μg/ml), nicotinamide (1 μg/ml), pyridoxal HCl (1 μg/ml), riboflavin (0.1 μg/ml) and thiamine HCl (1 μg/ml).
At 70% confluency, the medium was changed and the test compound or carrier (dimethylsulfoxide, 0.4% final concentration) was added. After 24 hours of incubation, the medium was transferred to Eppendorf tubes and cleared by centrifugation. A sheep antibody directed against either apo B was added to the supernatant and the mixture was kept at 8° C. for 24 hours. Then, rabbit anti-sheep antibody was added and the immune complex was allowed to precipitate for 24 hours at 8° C. The immunoprecipitate was pelleted by centrifugation for 25 minutes at 1320 g and washed twice with a buffer containing 40 mM 4-morpholinepropanesulfonic acid, 40 mM NaH2PO4, 100 mM NaF, 0.2 mM dithiothreitol, 5 mM ethylenediamine tetraacetic acid, 5 mM ethylenebis (oxyethylenenitrilo) tetraacetic acid, 1% Triton-X-100, 0.5% sodium deoxycholate, 0.1% sodium dodecylsulphate, 0.2 μM leupeptin and 0.2 μM phenylmethylsulphonylfluoride. Radioactivity in the pellet was quantified by liquid scintillation counting.
Resulting IC50 values are enumerated in Table C.1 for a number of compounds No. 1 to No. 123.

Compound	IC50 (HepG2, 24 h)	IC50
CCNC(=O)C(c1ccccc1)C1CCN(c2ccc(NC(=O)c3ccccc3-c3ccccc3)cc2)CC1 (stereo not shown) [Co. No. 180]	114 nM	
CCNC(=O)C(c1ccccc1)C1CCN(c2ccc(NC(=O)c3ccccc3-c3ccccc3C)cc2)CC1 (stereo not shown) [Co. No. 85, N-[4-[4-[2-(ethylamino)-2-oxo-1-phenylethyl]-1-piperidinyl]phenyl]-2′-methyl-[1,1′-biphenyl]-2-carboxamide]	129 nM	
O=C(Nc1ccc(N2CCC(C(C(=O)Oc3ccccc3)c3ccccc3)CC2)cc1)c1ccccc1-c1ccccc1 (stereo not shown) [Co. No. 178]	34.3 nM	
CCCNC(=O)C(c1ccccc1)C1CCN(c2ccc(NC(=O)c3ccccc3-c3cc(Cl)cc(Cl)c3)cc2)CC1 (stereo not shown) [Co. No. 97, 3′,5′-dichloro-N-[4-[4-[2-oxo-1-phenyl-2-(propylamino)ethyl]-1-piperidinyl]phenyl]-[1,1′-biphenyl]-2-carboxamide]	234 nM	
CCNC(=O)C(c1ccccc1)N1CCN(c2ccc(NC(=O)c3ccc(C)cc3-c3ccc(C(F)(F)F)cc3)cc2)CC1 (stereo not shown) [Co. No. 194]	43 nM	
Cc1ccc(-c2ccccc2C(=O)Nc2ccc(N3CCC(C(C(=O)NCc4ccccc4)c4ccccc4)CC3)cc2)cc1 (stereo not shown) [Co. No. 104]	7.94 nM	
CCC(CC)OC(=O)C(c1ccccc1)C1CCN(c2ccc(NC(=O)c3ccccc3-c3ccc(C(F)(F)F)cc3)cc2)CC1 (stereo not shown) [Co. No. 247]	> 3000 nM	
O=C(Nc1ccc(C2CCN(C(C(=O)Nc3ccccc3)c3ccccc3)CC2)cc1)c1ccccc1-c1ccccc1 (stereo not shown) [Co. No. 162]	96.6 nM	
CCCNC(=O)C(c1ccccc1)C1CCN(c2ccc(NC(=O)c3ccccc3-c3cccc(N)c3)cc2)CC1 (stereo not shown) [Co. No. 133]	> 3000 nM	
O=C(Nc1ccc(N2CCC(C(C(=O)Nc3ccccc3)c3ccccc3)CC2)cc1)c1ccccc1-c1ccccc1C(F)(F)F (stereo not shown) [Co. No. 109]	1470 nM	
C=CCOC(=O)C(c1ccccc1)C1CCN(c2ccc(NC(=O)c3ccccc3-c3ccccc3)cc2)CC1 (stereo not shown) [Co. No. 179]	403 nM	
CCCNC(=O)C(c1ccccc1)C1CCN(c2ccc(NC(=O)c3ccccc3-c3ccccc3OC)cc2)CC1 (stereo not shown) [Co. No. 43]	1770 nM	
O=C(Nc1ccc(N2CCC(C(C(=O)Nc3ccccc3)c3ccccc3)CC2)cc1)c1ccccc1Oc1ccccc1 (stereo not shown) [Co. No. 34]	1550 nM	
CC(C)NC(=O)C(c1ccccc1)N1CCN(c2ccc(NC(=O)c3ccccc3-c3ccc(C(F)(F)F)cc3)cc2)CC1 (stereo not shown) [Co. No. 56]	≤ 30 nM	
C=CCNC(=O)C(c1ccccc1)N1CCN(c2ccc(NC(=O)c3ccccc3-c3ccccc3)cc2)CC1 (stereo not shown) [Co. No. 148]	60.4 nM	
CC(C)NC(=O)C(c1ccccc1)C1CCN(c2ccc(NC(=O)c3ccccc3CSc3ccccc3)cc2)CC1 (stereo not shown) [Co. No. 24]	847 nM	
Cc1ccc(-c2ccccc2C(=O)Nc2ccc(N3CCC(C(C(=O)Nc4ccccc4)c4ccccc4)CC3)cc2)cc1 (stereo not shown) [Co. No. 117]	121 nM	
CCCNC(=O)C(c1ccccc1)C1CCN(c2ccc(NC(=O)c3ccccc3-c3ccc(Cl)c(Cl)c3)cc2)CC1 (stereo not shown) [Co. No. 83]	43.3 nM	
CCNC(=O)C(c1ccccc1)C1CCN(c2ccc(NC(=O)c3ccccc3-c3ccccc3OC)cc2)CC1 (stereo not shown) [Co. No. 135]	149 nM	
CC(C)NC(=O)C(c1ccccc1)C1CCN(c2ccc(NC(=O)c3ccccc3OCc3ccccc3)cc2)CC1 (stereo not shown) [Co. No. 26]	275 nM	
O=C(Nc1ccc(N2CCC(C(C(=O)NCc3ccccc3)c3ccccc3)CC2)cc1)c1ccccc1OCc1ccccc1 (stereo not shown) [Co. No. 8]	60.1 nM	
O=C(Nc1ccc(N2CCC(C(C(=O)Nc3ccccc3)c3ccccc3)CC2)cc1)c1ccccc1-c1cccc2ccccc12 (stereo not shown) [Co. No. 137]	1770 nM	
O=C(Nc1ccc(C2CCN(C(C(=O)NCc3ccccn3)c3ccccc3)CC2)cc1)c1ccccc1-c1ccc(C(F)(F)F)cc1 (stereo not shown) [Co. No. 77]	≤ 30 nM	
O=C(Nc1ccc(N2CCC(C(C(=O)Nc3ccccc3)c3ccccc3)CC2)cc1)c1ccccc1CSc1ccccc1 (stereo not shown) [Co. No. 31]	1280 nM	
O=C(Nc1ccc(N2CCC(C(C(=O)NCc3ccccc3)c3ccccc3)CC2)cc1)c1ccccc1-c1cc(Cl)cc(Cl)c1 (stereo not shown) [Co. No. 50]	93.8 nM	
CC(C)CCOC(=O)C(c1ccccc1)N1CCC(c2ccc(NC(=O)c3ccccc3-c3ccc(C(F)(F)F)cc3)cc2)CC1 (stereo not shown) [Co. No. 227]	187 nM	

Compound	IC50 (HepG2, 24 h)	IC50
O=C(Nc1ccc(N2CCC(C(C(=O)NCc3ccccc3)c3ccccc3)CC2)cc1)c1ccccc1-c1ccccc1Cl (stereo not shown) [Co. No. 103]	73.6 nM	
O=C(Nc1ccc(N2CCC(C(C(=O)Oc3ccccc3)c3ccccc3)CC2)cc1)c1ccccc1-c1ccc(C(F)(F)F)cc1 (stereo not shown) [Co. No. 175]	< 30 nM	
O=C(Nc1ccc(N2CCC(C(C(=O)Nc3ccccc3)c3ccccc3)CC2)cc1)c1ccccc1-c1cc(Cl)cc(Cl)c1 (stereo not shown) [Co. No. 106]	251 nM	
O=C(Nc1ccc(C2CCN(C(C(=O)OCCCc3ccccc3)c3ccccc3)CC2)cc1)c1ccccc1-c1ccc(C(F)(F)F)cc1 (stereo not shown) [Co. No. 221]	< 30 nM	
Cc1ccccc1-c1ccccc1C(=O)Nc1ccc(N2CCC(C(C(=O)Nc3ccccc3)c3ccccc3)CC2)cc1 (stereo not shown) [Co. No. 107]	292 nM	
CCNC(=O)C(c1ccccc1)N1CCN(c2cc(C)c(NC(=O)c3ccccc3-c3ccc(C(F)(F)F)cc3)c(C)c2)CC1 (stereo not shown) [Co. No. 216]	47.1 nM	
O=C(Nc1ccc(N2CCN(CC(C(=O)NCc3ccccc3)c3ccccc3)CC2)cc1)c1ccccc1-c1ccc(C(F)(F)F)cc1 (stereo not shown) [Co. No. 67]	247 nM	
CCNC(=O)C(c1ccccc1)N1CCN(c2ccc(NC(=O)c3c(C)cccc3-c3ccc(C(F)(F)F)cc3)cc2)CC1 (stereo not shown) [Co. No. 197]	16.5 nM	
CCNC(=O)C(c1ccccc1)N1CCN(c2ccc(NC(=O)c3cc(OC)ccc3-c3ccc(C(F)(F)F)cc3)cc2)CC1 (stereo not shown) [Co. No. 195]	89.7 nM	
COC(=O)C(c1ccc(Cl)cc1Cl)N1CCN(c2ccc(NC(=O)c3ccccc3-c3ccc(C(F)(F)F)cc3)cc2)CC1 (stereo not shown) [Co. No. 259]	420 nM	
C=CCOC(=O)C(c1ccccc1)C1CCN(c2ccc(NC(=O)c3ccccc3-c3ccc(C(F)(F)F)cc3)cc2)CC1 (stereo not shown) [Co. No. 176]	134 nM	
C#CCOC(=O)C(c1ccccc1)C1CCN(c2ccc(NC(=O)c3ccccc3-c3ccc(C(F)(F)F)cc3)cc2)CC1 (stereo not shown) [Co. No. 248]	68.5 nM	
C=CCNC(=O)C(c1ccccc1)N1CCC(c2ccc(NC(=O)c3ccccc3-c3ccc(C(F)(F)F)cc3)cc2)CC1 (stereo not shown) [Co. No. 71]	10.3 nM	
O=C(Nc1ccc(C2CCN(C(C(=O)Nc3ccccc3)c3ccccc3)CC2)cc1)c1ccccc1-c1ccc(C(F)(F)F)cc1 (stereo not shown) [Co. No. 80]	356 nM	
O=C(Nc1ccc(N2CCC(C(C(=O)NCc3ccccc3)c3ccccc3)CC2)cc1)c1ccccc1C(=O)c1ccccc1 (stereo not shown) [Co. No. 5]	158 nM	
O=C(Nc1ccc(C2CCN(C(C(=O)NCc3ccccc3)c3ccccc3)CC2)cc1)c1ccccc1-c1ccc(C(F)(F)F)cc1 (stereo not shown) [Co. No. 79]	50 nM	
O=C(Nc1ccc(C2CCN(C(C(=O)NCC(F)(F)F)c3ccccc3)CC2)cc1)c1ccccc1-c1ccc(C(F)(F)F)cc1 (stereo not shown) [Co. No. 78]	32.5 nM	
O=C(Nc1ccc(N2CCN(C(C(=O)NCc3ccccc3)c3ccccc3)CC2)cc1)c1ccccc1-c1ccccc1 (stereo not shown) [Co. No. 141]	25.1 nM	
CCNC(=O)C(c1ccccc1)C1CCN(c2ccc(NC(=O)c3ccccc3-c3cccc(C(F)(F)F)c3)cc2)CC1 (stereo not shown) [Co. No. 96]	32.1 nM	
C=CCOC(=O)C(c1ccccc1)N1CCN(c2ccc(NC(=O)c3ccccc3-c3ccccc3)cc2)CC1 (stereo not shown) [Co. No. 146]	341 nM	
CCNC(=O)C(c1ccccc1)C1CCN(c2ccc(NC(=O)c3ccccc3-c3cc(Cl)cc(Cl)c3)cc2)CC1 (stereo not shown) [Co. No. 49]	236 nM	
O=C(Nc1ccc(N2CCC(C(C(=O)Nc3ccccc3)c3ccccc3)CC2)cc1)c1ccccc1-c1ccc(F)cc1 (stereo not shown) [Co. No. 114]	836 nM	
CCCNC(=O)C(c1ccccc1)C1CCN(c2ccc(NC(=O)c3ccccc3-c3ccc(C(F)(F)F)cc3)cc2)CC1 (stereo not shown) [Co. No. 38, N-[4-[4-[2-oxo-1-phenyl-2-(propylamino)ethyl]-1-piperidinyl]phenyl]-4′-(trifluoromethyl)-[1,1′-biphenyl]-2-carboxamide trifluoroacetate (1:1)]		6.62 nM
O=C(Nc1ccc(N2CCC(C(C(=O)Nc3ccccc3)c3ccccc3)CC2)cc1)c1ccccc1COc1ccccc1 (stereo not shown) [Co. No. 32]	2390 nM	
CCNC(=O)C(c1ccccc1)C1CCN(c2ccc(NC(=O)c3ccccc3-c3ccc(C(F)(F)F)cc3)cc2)CC1 (stereo not shown) [Co. No. 181]	3.31 nM	
CCNC(=O)C(c1ccccc1)N1CCN(c2ccc(NC(=O)c3ccccc3-c3ccc(C(F)(F)F)cc3)cc2Cl)CC1 (stereo not shown) [Co. No. 213]	< 30 nM	
